Test results reported in PubChem BioAssay AID1919000 (Molecular Pharmacology Branch, DTP, NCI, 2023).

System: 653999-131-R-J2-PDC complex spheroids, growth % test/control
Test: Anticancer human tumor 653999-131-R-J2-PDC patient-derived lung adenocarcinoma cell line growth inhibition [AhR]
Details: for IC50: curve of first compound; for viability, T/C: stronger effect = lower value
Outline: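 Complex tumor spheroids co-cultured with HUVEC and human MSC stroma; AhR antagonists tested in combination with standard-of-care and investigational agents. Top concentration at or near clinical Cmax (else 10 microM), half-log dilutions; growth expressed as percent test/control.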

[1] = second compound 0.1 µM, first compound 0.0316 µM
[2] = second compound 0.1 µM, first compound 0.1 µM
[3] = second compound 0.1 µM, first compound 0.316 µM
[4] = second compound 0.1 µM, first compound 1 µM
[5] = second compound 0.1 µM, first compound 3.16 µM
[6] = second compound 0.1 µM, first compound 10 µM
[7] = second compound 0.316 µM, first compound 0.0316 µM
[8] = second compound 0.316 µM, first compound 0.1 µM
[9] = second compound 0.316 µM, first compound 0.316 µM
[10] = second compound 0.316 µM, first compound 1 µM
[11] = second compound 0.316 µM, first compound 3.16 µM
[12] = second compound 0.316 µM, first compound 10 µM
[13] = second compound 1 µM, first compound 0.0316 µM
[14] = second compound 1 µM, first compound 0.1 µM
[15] = second compound 1 µM, first compound 0.316 µM
[16] = second compound 1 µM, first compound 1 µM
[17] = second compound 1 µM, first compound 3.16 µM
[18] = second compound 1 µM, first compound 10 µM
[19] = second compound 3.16 µM, first compound 0.0316 µM
[20] = second compound 3.16 µM, first compound 0.1 µM
[21] = second compound 3.16 µM, first compound 0.316 µM
[22] = second compound 3.16 µM, first compound 1 µM
[23] = second compound 3.16 µM, first compound 3.16 µM
[24] = second compound 3.16 µM, first compound 10 µM
[25] = second compound 10 µM, first compound 0.0316 µM
[26] = second compound 10 µM, first compound 0.1 µM
[27] = second compound 10 µM, first compound 0.316 µM
[28] = second compound 10 µM, first compound 1 µM
[29] = second compound 10 µM, first compound 3.16 µM
[30] = second compound 10 µM, first compound 10 µM
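Note: spheroids exposed to agents for seven days.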
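Throughout, for viability, T/C: 100% = DMSO vehicle control viability.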

IC50 (second compound 0.1 µM) [µM] | IC50 (second compound 0.316 µM) [µM] | IC50 (second compound 1 µM) [µM] | IC50 (second compound 3.16 µM) [µM] | IC50 (second compound 10 µM) [µM] | Compound | viability, T/C [1] [%] | viability, T/C [2] [%] | viability, T/C [3] [%] | viability, T/C [4] [%] | viability, T/C [5] [%] | viability, T/C [6] [%] | viability, T/C [7] [%] | viability, T/C [8] [%] | viability, T/C [9] [%] | viability, T/C [10] [%] | viability, T/C [11] [%] | viability, T/C [12] [%] | viability, T/C [13] [%] | viability, T/C [14] [%] | viability, T/C [15] [%] | also measured
> 10 | > 10 | > 10 | > 10 | 3.01 | O=C(c1cc(Cc2n[nH]c(=O)c3ccccc23)ccc1F)N1CCN(C(=O)C2CC2)CC1 + Cc1cncc(-c2nc(NCCc3c[nH]c4ccccc34)c3ncn(C(C)C)c3n2)c1 | 99.2 | 101 | 92.2 | 94 | 97.7 | 79.3 | 96.2 | 106 | 97.1 | 102 | 91.5 | 86.3 | 108 | 114 | 112 | viability, T/C [16]: 103%; viability, T/C [17]: 96.9%; viability, T/C [18]: 91.3%; viability, T/C [19]: 102%; viability, T/C [20]: 109%; viability, T/C [21]: 112%; viability, T/C [22]: 114%; viability, T/C [23]: 101%; viability, T/C [24]: 91.3%; viability, T/C [25]: 61.2%; viability, T/C [26]: 61.1%; viability, T/C [27]: 55.1%; viability, T/C [28]: 55.5%; viability, T/C [29]: 49.3%; viability, T/C [30]: 44.7%
8.97 | > 10 | > 10 | 7.88 | 3.94 | CC1COCCN1c1cc(C2(S(C)(=N)=O)CC2)nc(-c2ccnc3[nH]ccc23)n1 (stereo not given) + CC(CO)NC(=O)c1cc(-c2ccc(Cl)cc2)nn(-c2cnn(C)c2)c1=O | 102 | 97.6 | 97.8 | 87.3 | 75.2 | 47.1 | 101 | 95.6 | 103 | 83.3 | 71.3 | 52.6 | 101 | 95.4 | 101 | viability, T/C [16]: 91%; viability, T/C [17]: 73.9%; viability, T/C [18]: 51.5%; viability, T/C [19]: 92.7%; viability, T/C [20]: 107%; viability, T/C [21]: 100%; viability, T/C [22]: 88.8%; viability, T/C [23]: 55.6%; viability, T/C [24]: 48.5%; viability, T/C [25]: 111%; viability, T/C [26]: 98.5%; viability, T/C [27]: 100%; viability, T/C [28]: 78%; viability, T/C [29]: 51.5%; viability, T/C [30]: 41.8%
1.94 | 3.06 | 4.74 | 1.6 | 6.31 | Nc1ccn(C2OC(CO)C(O)C2(F)F)c(=O)n1 (stereo not given) + CC(CO)NC(=O)c1cc(-c2ccc(Cl)cc2)nn(-c2cnn(C)c2)c1=O | 65.4 | 66.8 | 61.2 | 48 | 48.4 | 42.9 | 73.9 | 69.8 | 62.2 | 58.4 | 46.5 | 45.3 | 67.5 | 69.9 | 58.6 | viability, T/C [16]: 58.1%; viability, T/C [17]: 50.4%; viability, T/C [18]: 47.1%; viability, T/C [19]: 78.1%; viability, T/C [20]: 74%; viability, T/C [21]: 63.7%; viability, T/C [22]: 55.7%; viability, T/C [23]: 42.7%; viability, T/C [24]: 40.9%; viability, T/C [25]: 96.5%; viability, T/C [26]: 76.8%; viability, T/C [27]: 64.4%; viability, T/C [28]: 58%; viability, T/C [29]: 51.7%; viability, T/C [30]: 48.4%
